Measurements: PubChem BioAssay (NCI)
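Values below derive from 48-hour exposures of cells grown in 96-well plates, with endpoints linearly interpolated between the two concentrations bracketing the appropriate inhibition level. GI50: concentration for 50% inhibition of growth. TGI is the concentration that stops growth completely.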

Key:
Assay in all cases: inhibition of tumour cell growth, NCI panel, 48 h
786-0 renal = system: 786-0 renal
HCT-116 colon = system: HCT-116 colon
HCT-15 colon = system: HCT-15 colon
IGROV1 ovarian = system: IGROV1 ovarian
MALME-3M melanoma = system: MALME-3M melanoma
RXF 393 renal = system: RXF 393 renal
SK-MEL-2 melanoma = system: SK-MEL-2 melanoma
U251 CNS = system: U251 CNS
SF-539 CNS = system: SF-539 CNS
HOP-92 NSCLC = system: HOP-92 NSCLC

SMILES | GI50 (786-0 renal) [µM] | TGI (786-0 renal) [µM] | GI50 (HCT-116 colon) [µM] | TGI (HCT-116 colon) [µM] | GI50 (HCT-15 colon) [µM] | TGI (HCT-15 colon) [µM] | GI50 (IGROV1 ovarian) [µM] | TGI (IGROV1 ovarian) [µM] | GI50 (MALME-3M melanoma) [µM] | TGI (MALME-3M melanoma) [µM] | GI50 (RXF 393 renal) [µM] | TGI (RXF 393 renal) [µM] | GI50 (SK-MEL-2 melanoma) [µM] | TGI (SK-MEL-2 melanoma) [µM] | GI50 (U251 CNS) [µM] | TGI (U251 CNS) [µM] | TGI (SF-539 CNS) [µM] | GI50 (HOP-92 NSCLC) [µM] | TGI (HOP-92 NSCLC) [µM] | GI50 (SF-539 CNS) [µM]
Cc1[nH]c2ccc(F)cc2c1-c1nc2c3cccnc3c3ncccc3c2[nH]1 | 0.327 | > 100 | 0.263 | > 100 | 0.387 | > 100 | 0.374 | > 100 | 0.283 | > 100 | 0.354 | > 100 | 0.51 | > 100 | 0.244 | > 100 |  |  |  | 
CCOC(=O)/C(O)=C(/C(=O)OC)c1ccc(Cl)cc1 |  | > 100 |  |  |  | > 100 |  | > 100 |  | > 100 |  |  |  | > 100 |  | > 100 | > 100 |  |  | 
COc1ccc(C(=O)/C=C/c2cccc(Nc3ccnc4cc(Cl)ccc34)c2)cc1 | 1.48 | 4.27 | 0.844 | 12.2 | 2.04 | > 100 | 1.44 | 6.53 | 1.79 | 6.3 | 1.82 | 5.17 |  |  | 1.74 | 4.82 | 4.3 | 1.09 | 7.08 | 1.7
CN(C)C(=O)c1cnc2oc3ccc(O)cc3c2c1-c1ccccc1 | > 25 | > 25 | > 25 | > 25 | > 25 | > 25 | > 25 | > 25 |  |  | > 25 | > 25 | > 25 | > 25 | > 25 | > 25 |  | > 25 | > 25 | 
Cc1nn(-c2ccc([N+](=O)[O-])cc2)c2ncnc(N/N=C/c3ccccc3O)c12 | 0.539 | 3.41 |  |  |  |  | 0.462 | 4.31 | 0.62 | 3.95 | 0.366 | 1.62 | 1.57 | > 45 | 0.332 | 2.44 | 1.77 | 0.806 | 4.63 | 0.424
CCN(CC)c1oc(N(CC)CC)c(C(=O)Nc2ccccn2)c(=O)c1C(C)=O |  | > 100 |  | > 100 |  | > 100 |  | > 100 |  | > 100 |  |  |  | > 100 |  | > 100 | > 100 |  | > 100 | 
CCOC(=O)c1cc2c(n1Cc1cc(OC)c(OC)c(OC)c1)-c1oncc1CCC2 | 0.583 | > 35.9 | 0.235 | > 100 | 0.186 | > 100 | 0.147 | 5.36 | 0.061 | > 52.3 | 0.126 | > 100 | 0.0841 | 0.545 | 0.214 | 5.01 |  |  |  | 
Oc1c(Cl)c(Cl)c(O)c2c1CCCC2 |  | 3.94 |  | 2.83 |  | 29.7 |  |  |  | 9.48 |  | 22.5 |  | 45.4 |  | 42.7 | 23.5 |  | 4.85 | 
[O-]c1ccccc1/C=N/C(/N=C/c1ccccc1[O-])c1ccccc1O.[O-]c1ccccc1/C=N/C(/N=C/c1ccccc1[O-])c1ccccc1O.[Zr+4] | 41.6 | > 100 | 40.8 | > 100 | 50.3 | > 100 | 56.4 | > 100 |  |  |  |  |  |  | 36.7 | > 100 | > 100 |  |  | 17.8
CCSc1nc(SCC)c2c(-c3ccc(OC)c(OC)c3)c(C#N)c(SCC)nc2n1 | 18.7 | 59.1 | 30.3 | > 100 | 24.6 | 61.2 | 33.5 | > 100 |  |  | 59.7 | > 100 | 63.8 | > 100 | 22.7 | 48.3 | 17.2 | 23.2 | 76.7 | 1.95
CC(=O)[CH-]C(=O)c1ccccc1.CC(=O)[CH-]C(=O)c1ccccc1.CC(=O)[CH-]C(=O)c1ccccc1.[In+3] | 61.5 | > 100 | 9.32 | > 100 |  |  | 91.4 | > 100 | 25.2 | 84.1 | 48.3 | > 100 | 13 | 34.2 | 22.8 | > 100 | > 100 | 17.8 | 49.8 | 21.6
CCc1cccc(C)c1NC(=O)C1=C(C)NC(C)=C(C(=O)Nc2c(C)cccc2CC)C1c1ccc2c(c1)OCO2 |  | 33.2 |  |  |  |  |  | 78.6 |  | 30.5 |  | 27.2 |  | 29.6 |  | 32.1 | 38.6 |  | 59.3 | 
O=S(=O)(c1cccc2c(I)cccc12)N1CCCNCC1 | 16.9 | 32.8 | 15.4 | 32.6 | 17.9 | 34.7 | 15.8 | 31.4 |  |  | 27.3 | 73 | 16.7 | 33.6 | 19.6 | 39.1 | 32.8 | 14.1 | 32.5 | 15.7
Cc1[nH]c(=O)nc(Nc2ccc(Cl)cc2)c1C(=O)N1CCN(CCO)CC1 | 50.7 | > 100 | 81.9 | > 100 | > 100 | > 100 | > 100 | > 100 | 29.9 | > 100 | 24.4 | 76.8 |  |  | 37.6 | > 100 | > 100 | 28.7 | 71.6 | 75.9
CCc1ccccc1NC(=O)/C(N=O)=C(/C)O |  | > 100 |  | > 100 |  | > 100 |  | > 100 |  | > 100 |  | > 100 |  | > 100 |  | > 100 | > 100 |  |  | 
CC(=O)[O][Sn]([CH2]c1ccccc1)([CH2]c1ccccc1)[CH2]c1ccccc1 | > 7.05 | > 10 | > 9.18 | > 10 | 4.25 | > 4.64 | > 10 | > 10 | > 4.38 | > 6.05 | 3.98 | > 4.64 | > 8.34 | > 10 | > 10 | > 10 | > 6.76 |  |  | > 5.42
